Results as given in article PMC11053447, “Human ABC and SLC Transporters: The Culprit Responsible for Unspecific PSMA-617 Uptake?” (Pharmaceuticals, 2024).

What was measured:
human OAT3 = molecular target: T1, human OAT3 (Homo sapiens, UniProt Q8TCC7); experiment: SLC transporter substrate assay, HEK293-OAT3-LV vs control HEK293-Mock-LV cells; conditions: 20 min
T1 sequence (Q8TCC7 1-542): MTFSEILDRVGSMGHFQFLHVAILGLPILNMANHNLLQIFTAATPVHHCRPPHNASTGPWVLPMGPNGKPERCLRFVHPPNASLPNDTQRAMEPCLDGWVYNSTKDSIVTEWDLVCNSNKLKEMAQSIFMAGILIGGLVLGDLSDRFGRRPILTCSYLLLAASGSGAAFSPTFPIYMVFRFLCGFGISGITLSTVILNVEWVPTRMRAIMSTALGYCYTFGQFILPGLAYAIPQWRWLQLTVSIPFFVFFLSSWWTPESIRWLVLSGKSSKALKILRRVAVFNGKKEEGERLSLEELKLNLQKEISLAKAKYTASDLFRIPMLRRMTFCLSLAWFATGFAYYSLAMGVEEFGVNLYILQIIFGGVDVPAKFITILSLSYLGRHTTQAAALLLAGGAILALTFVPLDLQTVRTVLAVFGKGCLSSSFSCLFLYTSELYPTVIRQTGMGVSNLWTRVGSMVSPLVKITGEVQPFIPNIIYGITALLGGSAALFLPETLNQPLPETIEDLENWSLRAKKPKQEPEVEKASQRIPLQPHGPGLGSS

human MATE2-K = human MATE2-K (Homo sapiens, UniProt Q86VL8); experiment: SLC transporter substrate assay, MDCKII-MATE2K-Fin vs control MDCKII-CAT-Fin cells
Method: The described cells were plated onto standard 24-well tissue culture plates at densities of 5 × 10^5 cells/well. […] Before starting the experiment, the cells were prepared by removing the medium and washing the cells twice with 300 µL of assay buffer. […] The cells were lysed by adding 300 µL of 0.1N NaOH, they were incubated for 10 min at 37 °C and 100 µL samples were taken from all the wells.
The amount of protein in each well was quantified using the BCA kit for protein determination (Sigma-Aldrich, St Louis, MO, USA). Positive controls were performed using a separate 96-well plate format according to Table S8 in SI4.
SI4. Results of transporter substrate assays (SLC)
Table S8: Parameters of positive controls, control cell lines and plating for SLC transporters assays.
KH: Krebs-Henseleit buffer, HBSS: Hank's balanced salt solution, MES: 2 -(N-morpholino) ethanesulfonic acid, cGMP:
Guanosine cyclic phosphate, E3S: Estrone -3-sulfate, Gly-Sar: Glycylsarcosine, MPP+: 1-methyl-4-phenylpyridinium.
Calculation of fold accumulation values for SLC transporter substrate assays The fold accumulation value was defined as the ratio of uptake of the test substance (TS) or probe substrate into transfected and control cells. If the fold accumulation is > 2 and can be inhibited by a known inhibitor of the transporter, the test substance can be considered as a substrate of the respective transporter.
Fold accumulation = UPTTRP
• UPTTRP: accumulated amount of test substance (TS) or probe substrate in transfected cells normalized by protein content […]
• UPTCTRL: accumulated amount of test substance (TS) or probe substrate in control cells normalized by protein content […]
4.2 Multidrug and toxin extrusion protein MATE2-K
(MDCKII-MATE2K-Fin) and control cells (MDCKII-CAT-Fin) applying 2- and 20-minute incubation periods, measured in SLC transporter substrate assay. […] Concentrations are nominal. […]
and control cells (MDCKII-CAT-Fin) applying 2- and 20-minute incubation periods, measured in SLC transporter […]
Compound Nominal In MATE2-K Fold

human OAT4 = molecular target: T2, human OAT4 (Homo sapiens, UniProt Q9NSA0); experiment: SLC transporter substrate assay, HEK293-OAT4-LV vs control HEK293-Mock-LV cells; conditions: 20 min
T2 sequence (Q9NSA0 1-550): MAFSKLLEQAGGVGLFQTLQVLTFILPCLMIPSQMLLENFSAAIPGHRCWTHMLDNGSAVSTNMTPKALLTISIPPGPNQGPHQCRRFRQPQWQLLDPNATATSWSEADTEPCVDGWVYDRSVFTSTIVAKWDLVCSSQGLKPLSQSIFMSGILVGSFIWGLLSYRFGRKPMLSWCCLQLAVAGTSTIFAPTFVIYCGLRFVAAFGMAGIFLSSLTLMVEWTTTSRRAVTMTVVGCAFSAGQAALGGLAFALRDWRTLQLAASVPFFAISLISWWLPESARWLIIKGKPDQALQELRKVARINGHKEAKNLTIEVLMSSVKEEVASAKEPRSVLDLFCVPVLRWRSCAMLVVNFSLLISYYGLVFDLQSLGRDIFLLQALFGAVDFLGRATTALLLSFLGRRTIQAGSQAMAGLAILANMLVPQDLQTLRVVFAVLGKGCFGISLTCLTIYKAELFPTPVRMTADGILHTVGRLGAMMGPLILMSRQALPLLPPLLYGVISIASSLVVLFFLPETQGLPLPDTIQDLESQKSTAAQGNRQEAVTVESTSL

[1] = 0.03 µM nominal + Probenecid 500 µM
[2] = 0.30 µM nominal + Probenecid 500 µM
[3] = 0.03 µM nominal + Benzbromarone 300 µM
[4] = 0.30 µM nominal + Benzbromarone 300 µM

Chain of human MATE2-K (Q86VL8 1-566 isoform Q86VL8-3): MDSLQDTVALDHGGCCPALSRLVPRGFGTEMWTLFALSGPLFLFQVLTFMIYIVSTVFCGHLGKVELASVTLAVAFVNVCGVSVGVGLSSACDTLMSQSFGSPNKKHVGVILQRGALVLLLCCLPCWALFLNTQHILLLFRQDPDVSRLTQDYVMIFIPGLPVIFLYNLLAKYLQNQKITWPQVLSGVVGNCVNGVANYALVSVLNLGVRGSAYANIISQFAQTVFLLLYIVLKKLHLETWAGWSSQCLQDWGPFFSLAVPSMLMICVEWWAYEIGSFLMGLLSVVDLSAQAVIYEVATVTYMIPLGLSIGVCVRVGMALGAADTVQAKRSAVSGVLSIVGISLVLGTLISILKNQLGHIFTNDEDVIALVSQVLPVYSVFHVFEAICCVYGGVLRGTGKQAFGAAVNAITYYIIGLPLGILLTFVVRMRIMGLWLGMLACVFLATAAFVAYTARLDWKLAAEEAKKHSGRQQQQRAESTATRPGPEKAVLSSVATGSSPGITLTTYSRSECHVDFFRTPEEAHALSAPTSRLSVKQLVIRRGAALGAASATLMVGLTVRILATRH

SMILES: [3H]C(c1ccc2ccccc2c1)C([3H])(NC(=O)C1CCC(CNC(=O)CN2CCN(CC(=O)[O-])CCN(CC(=O)[O-])CCN(CC(=O)[O-])CC2)CC1)C(=O)NCCCCC(NC(=O)NC(CCC(=O)O)C(=O)O)C(=O)O.[Lu+3] (stereo not drawn) [([α,β-^3H]Nal)Lu-PSMA-617]
- Accumulation in OAT3 transporter expressing cells (human OAT3; [1]): 0.05 ± 0.01 pmol/mg protein
- Accumulation in control cells (human OAT3; [1]): 0.03 ± 0.01 pmol/mg protein
- Accumulation, active transport (human OAT3; [1]): 0.02 ± 0.01 pmol/mg protein
- Fold accumulation (human OAT3; [1]): 1.56
- Accumulation in OAT3 transporter expressing cells (human OAT3; 0.03 µM nominal, no inhibitor): 0.07 ± 0.01 pmol/mg protein
- Accumulation in control cells (human OAT3; 0.03 µM nominal, no inhibitor): 0.03 ± 0.00 pmol/mg protein
- Accumulation, active transport (human OAT3; 0.03 µM nominal, no inhibitor): 0.03 ± 0.01 pmol/mg protein
- Fold accumulation (human OAT3; 0.03 µM nominal, no inhibitor): 1.96
- Accumulation in OAT3 transporter expressing cells (human OAT3; [2]): 0.74 ± 0.15 pmol/mg protein
- Accumulation in control cells (human OAT3; [2]): 0.29 ± 0.07 pmol/mg protein
- Accumulation, active transport (human OAT3; [2]): 0.45 ± 0.17 pmol/mg protein
- Fold accumulation (human OAT3; [2]): 2.52
- Accumulation in OAT3 transporter expressing cells (human OAT3; 0.30 µM nominal, no inhibitor): 0.60 ± 0.13 pmol/mg protein
- Accumulation in control cells (human OAT3; 0.30 µM nominal, no inhibitor): 0.29 ± 0.06 pmol/mg protein
- Accumulation, active transport (human OAT3; 0.30 µM nominal, no inhibitor): 0.31 ± 0.14 pmol/mg protein
- Fold accumulation (human OAT3; 0.30 µM nominal, no inhibitor): 2.09
- Max. transporter-specific fold accumulation, without inhibitor (human OAT3; 0.3 µM): 2.09
- Uptake via transporter (OAT3) (human OAT3; absence and presence of probenecid): not taken up
- Max. transporter-specific fold accumulation, with inhibitor (human OAT3; Probenecid, 0.3 µM): 2.52
- Accumulation in MATE2-K transporter expressing cells (human MATE2-K; 0.03 µM nominal, 2 min): 0.06 ± 0.01 pmol/mg protein
- Accumulation in control cells (human MATE2-K; 0.03 µM nominal, 2 min): 0.11 ± 0.01 pmol/mg protein
- Accumulation, active transport (human MATE2-K; 0.03 µM nominal, 2 min): -0.05 ± 0.02 pmol/mg protein
- Fold accumulation (human MATE2-K; 0.03 µM nominal, 2 min): 0.54
- Accumulation in MATE2-K transporter expressing cells (human MATE2-K; 0.03 µM nominal, 20 min): 0.10 ± 0.01 pmol/mg protein
- Accumulation in control cells (human MATE2-K; 0.03 µM nominal, 20 min): 0.16 ± 0.01 pmol/mg protein
- Accumulation, active transport (human MATE2-K; 0.03 µM nominal, 20 min): -0.07 ± 0.01 pmol/mg protein
- Fold accumulation (human MATE2-K; 0.03 µM nominal, 20 min): 0.59
- Accumulation in MATE2-K transporter expressing cells (human MATE2-K; 0.30 µM nominal, 2 min): 0.64 ± 0.14 pmol/mg protein
- Accumulation in control cells (human MATE2-K; 0.30 µM nominal, 2 min): 0.59 ± 0.04 pmol/mg protein
- Accumulation, active transport (human MATE2-K; 0.30 µM nominal, 2 min): 0.05 ± 0.15 pmol/mg protein
- Fold accumulation (human MATE2-K; 0.30 µM nominal, 2 min): 1.08
- Accumulation in MATE2-K transporter expressing cells (human MATE2-K; 0.30 µM nominal, 20 min): 0.91 ± 0.13 pmol/mg protein
- Accumulation in control cells (human MATE2-K; 0.30 µM nominal, 20 min): 0.97 ± 0.07 pmol/mg protein
- Accumulation, active transport (human MATE2-K; 0.30 µM nominal, 20 min): -0.06 ± 0.15 pmol/mg protein
- Fold accumulation (human MATE2-K; 0.30 µM nominal, 20 min): 0.94
- Substrate assessment (MATE2-K) (human MATE2-K; 0.03, 0.30 µM, 2, 20 min): no in vitro substrate
- Max. transporter-specific fold accumulation, without inhibitor (human MATE2-K; 2 min, 0.3 µM): 1.08
- Accumulation in OAT4 transporter expressing cells (human OAT4; [3]): 0.03 ± 0.01 pmol/mg protein
- Accumulation in control cells (human OAT4; [3]): 0.02 ± 0.00 pmol/mg protein
- Accumulation, active transport (human OAT4; [3]): 0.01 ± 0.01 pmol/mg protein
- Fold accumulation (human OAT4; [3]): 1.47
- Accumulation in OAT4 transporter expressing cells (human OAT4; 0.03 µM nominal, no inhibitor): 0.04 ± 0.01 pmol/mg protein
- Accumulation in control cells (human OAT4; 0.03 µM nominal, no inhibitor): 0.03 ± 0.00 pmol/mg protein
- Accumulation, active transport (human OAT4; 0.03 µM nominal, no inhibitor): 0.01 ± 0.01 pmol/mg protein
- Fold accumulation (human OAT4; 0.03 µM nominal, no inhibitor): 1.22
- Accumulation in OAT4 transporter expressing cells (human OAT4; [4]): 0.40 ± 0.12 pmol/mg protein
- Accumulation in control cells (human OAT4; [4]): 0.49 ± 0.14 pmol/mg protein
- Accumulation, active transport (human OAT4; [4]): -0.09 ± 0.18 pmol/mg protein
- Fold accumulation (human OAT4; [4]): 0.81
- Accumulation in OAT4 transporter expressing cells (human OAT4; 0.30 µM nominal, no inhibitor): 0.35 ± 0.11 pmol/mg protein
- Accumulation in control cells (human OAT4; 0.30 µM nominal, no inhibitor): 0.22 ± 0.05 pmol/mg protein
- Accumulation, active transport (human OAT4; 0.30 µM nominal, no inhibitor): 0.13 ± 0.12 pmol/mg protein
- Fold accumulation (human OAT4; 0.30 µM nominal, no inhibitor): 1.58
- Max. transporter-specific fold accumulation, without inhibitor (human OAT4; 0.3 µM): 1.58
- Uptake via transporter (OAT4) (human OAT4; absence and presence of benzbromarone): not taken up
- Max. transporter-specific fold accumulation, with inhibitor (human OAT4; Benzbromarone, 0.3 µM): 0.81
